Results on 14 compounds are retold here after PubChem BioAssay (NCI).

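Step 1: Grow cells in 96-well plates. Step 2: Expose to compound for 48 hours at 5 concentrations. Step 3: Interpolate endpoints linearly; if unreached, use highest concentration. TGI is the concentration that stops growth completely.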 Some results are limits rather than exact numbers.

Holding throughout (test): NCI tumour cell line growth inhibition, 48 h
Test [1] has as its system A549 NSCLC.
In test [2] the test system is HOP-62 NSCLC.
The subject of test [3] is HS 578T breast.
Test [4] concerns MALME-3M melanoma.
The test system of test [5] is MDA-MB-435.
The test system of test [6] is MOLT-4 leukemia.
For test [7], the system named is OVCAR-5 ovarian.
In test [8] the test system is SK-MEL-2 melanoma.
The subject of test [9] is SNB-75 CNS.
Test [10] deals with T-47D breast.
Test [11] has as its system U251 CNS.

As to `Cc1cn(C2CC(OC(c3ccccc3)(c3ccccc3)c3ccccc3)C(COC(c3ccccc3)(c3ccccc3)c3ccccc3)O2)c(=O)[nH]c1=O` (stereo not given), the TGI in test [1], in test [2], in [3], in [4], in test [5] and in test [6] was over 100 µM in each case. Besides, the TGI in [7], in test [8] and in test [9] was over 100 µM throughout.

For `COC(=O)c1cc(C(=O)OC)cc(-c2ccc3c(c2)-c2nc4c(c(-c5ccc(OC)cc5)c2CC3)CCc2ccc(-c3cc(C(=O)OC)cc(C(=O)OC)c3)cc2-4)c1`, the TGI in [1] is over 100 µM; in [2], over 100 µM; in [4], over 100 µM; in [5], over 100 µM; in test [7], 31.8 µM; in [8] it was over 100 µM. For the same compound, the TGI in [9], in test [10] and in test [11] was over 100 µM each time.

For the compound `O=c1cc(-c2ccccc2F)[nH]c2cc3c(cc12)OCO3`, the TGI was over 100 µM in test [1]; over 21 µM in test [2]; over 47.3 µM in [4]; 0.0217 µM in test [5]; over 18.3 µM in test [6]; over 100 µM in [7]. Further, the TGI in [8] is over 100 µM; in test [9], 17.3 µM; in test [10] it was over 100 µM; in test [11] it was 22.5 µM.

For the compound `C(=N/Nc1ccc(-c2nc3ccccc3[nH]2)cc1)/c1c(-c2ccccc2)[nH]c2ccccc12`, the TGI is 30.9 µM in [2]; 0.889 µM in test [3]; 0.785 µM in [5]; over 100 µM in test [6]; 0.794 µM in test [8]; 59.9 µM in test [9]. For the same compound, the TGI is over 100 µM in test [10] and 8.69 µM in test [11].

As to `NC(=S)N=Nc1c(O)cc(Nc2ccc(Cl)cc2Cl)c2ccccc12`, the TGI in [1] is over 100 µM; in test [2] it was 22.4 µM; in test [5] it was over 100 µM; in [6], over 100 µM; in [7], over 100 µM; in [8], over 100 µM. In addition, the TGI came out at 78.5 µM in test [9], 93.6 µM in test [10] and 38.2 µM in [11].

Turning to `CC1=CCC[C@H]2[C@](C)(CC3=CC(=O)C4SCCSC4C3=O)[C@@H](C)CC[C@]12C` (stereo not given in full), the TGI turned out to be 38.3 µM in [1]; 31.1 µM in test [2]; 58.7 µM in [5]; 80.7 µM in [6]; 37.5 µM in test [7]; 23.2 µM in test [8]. Further, the values for the TGI in [9], in test [10] and in test [11] were 80.8 µM, over 100 µM and 34.5 µM, respectively.

As to `Cc1cc(C)nc(NS(=O)(=O)c2ccc(Nc3c4ccccc4nc4c(C(=O)N5CCN(CCOS(C)(=O)=O)CC5)ccc(Cl)c34)cc2)n1`, the TGI in test [1], in [2], in test [4], in [6], in [7] and in [8] was over 100 µM each time. For the same compound, the TGI in test [9] and in test [11] was over 100 µM throughout.

Consider `N#CC(C#N)=Cc1cccc(Oc2ccccc2)c1`, for which the TGI in [1] is over 100 µM; in test [2] it was 64.6 µM; in test [4], 43.4 µM; in test [6], 78.7 µM; in [7] it was over 100 µM; in test [8], 49 µM. For the same compound, the TGI in test [9] is over 94.9 µM; in test [11] it was 18.9 µM.

As to `COC(=O)/C(=N\NC(=S)NN)C(C(=O)C(=O)Nc1ccccc1C(N)=O)c1nc2ccccc2[nH]c1=O` (stereo not given), the TGI in test [1], in [4], in test [6], in test [7], in test [8] and in [11] was over 100 µM throughout.

As to `CCOP(=O)(OCC)c1cc(-c2ccccc2)ccc1N`, the TGI in [1], in test [2], in test [3], in [4], in [5] and in [6] was over 100 µM each time. Moreover, the TGI in test [7], in test [8], in test [9] and in test [11] was over 100 µM throughout.

As to `OC(c1ccco1)C(F)(F)c1nc2ccccc2o1` (stereo not given), the TGI in test [2], in test [3], in [5], in [6], in test [8] and in test [9] was over 100 µM in each case. Besides, the TGI in [10] and in [11] was over 100 µM throughout.

Regarding `CCCC[C@@H]1CCN2C[C@@H](O)[C@@H](O)[C@H]2[C@@H]1O`, the TGI in test [1], in [3], in test [4], in test [5], in test [6] and in [7] was over 100 µM throughout. Moreover, the TGI in [8], in test [9] and in test [11] was over 100 µM throughout.

Consider `Cc1ccsc1C(=S)Nc1ccc(Cl)c(C(=O)OC(C(C)C)C(C)C)c1`, for which the TGI in test [1] was over 100 µM; in test [3] it was over 100 µM; in test [5] it was 63.1 µM; in test [6], 55.6 µM; in [7], over 100 µM; in test [8] it was 25.8 µM. Also, the TGI is 95.3 µM in [9], over 100 µM in test [10] and 97.1 µM in test [11].

For the compound `NNC(=O)c1cccc2c1Oc1ccccc1S2`, the TGI in test [2], in [3], in [5], in test [6], in test [8] and in [9] was over 100 µM each time. Besides, the TGI in [10] and in [11] was over 100 µM in each case.
